This note sets out measurements from ChEMBL document CHEMBL5665443, “Enzyme Inhibitor Single Concentration assay results for EUbOPEN Chemogenomics Library” (2024).

The structures appear in SMILES notation.

Assay [1] concerns the target Uracil-DNA glycosylase (Homo sapiens) (UniProt P13051). The following applies: Hit No.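 Note: UNG excision on a quenched double-stranded DNA oligo probe, with APE1 added for strand incision and turnover, read as fluorescence at 594 nm as strands separate.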
Description: Inhibition of UNG by quantifying inhibition of UNG-mediated cleavage and dissociation of quenched duplex DNA oligonucleotides, measured as fluorescence at 594 nm. To generate a functional strand incision and increase turn-over this assay is coupled to APE1.
Assay [2] deals with T1, Endonuclease 8-like 2 (Homo sapiens) (UniProt Q969S2).
T1 sequence (whole entry): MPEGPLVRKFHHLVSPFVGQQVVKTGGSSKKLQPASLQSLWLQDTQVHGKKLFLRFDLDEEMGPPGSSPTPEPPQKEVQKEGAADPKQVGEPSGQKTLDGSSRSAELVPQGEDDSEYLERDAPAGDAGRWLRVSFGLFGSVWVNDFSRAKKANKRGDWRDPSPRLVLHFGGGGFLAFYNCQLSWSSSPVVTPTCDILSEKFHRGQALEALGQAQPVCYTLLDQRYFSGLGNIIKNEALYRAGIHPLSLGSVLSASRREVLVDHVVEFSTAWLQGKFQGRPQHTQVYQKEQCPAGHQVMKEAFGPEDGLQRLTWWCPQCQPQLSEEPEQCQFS
The following applies: Hit No.
Description: Inhibition of NEIL2 by quantifying inhibition of NEIL2-mediated cleavage and dissociation of quenched duplex DNA oligonucleotides, measured as fluorescence at 594 nm.

The target of assay [3] is T2, Endonuclease III-like protein 1 (Homo sapiens) (UniProt P78549).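 Note: enzyme assay tracking NTHL1 cutting and release of a quenched double-stranded DNA oligo substrate, read as fluorescence at 594 nm.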
T2 sequence (whole entry): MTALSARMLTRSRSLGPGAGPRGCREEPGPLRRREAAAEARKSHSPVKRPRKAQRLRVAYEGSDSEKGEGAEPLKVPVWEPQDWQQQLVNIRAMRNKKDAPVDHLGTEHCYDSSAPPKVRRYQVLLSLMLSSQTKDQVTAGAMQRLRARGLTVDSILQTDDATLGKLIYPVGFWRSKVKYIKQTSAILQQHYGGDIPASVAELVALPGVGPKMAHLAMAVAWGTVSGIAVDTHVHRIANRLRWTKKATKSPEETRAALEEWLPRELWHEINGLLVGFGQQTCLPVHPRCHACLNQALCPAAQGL
The following applies: Hit No.
Description: Inhibition of NTHL1 by quantifying inhibition of NTHL1-mediated cleavage and dissociation of quenched duplex DNA oligonucleotides, measured as fluorescence at 594 nm.

The target of assay [4] is Endonuclease 8-like 1 (Homo sapiens) (UniProt Q96FI4). The following applies: Hit No.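 Note: fluorescence at 594 nm from quenched duplex DNA oligonucleotides released by NEIL1 cleavage and strand separation, reported as reduction of this enzyme activity.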
Description: Inhibition of NEIL1 by quantifying inhibition of NEIL1-mediated cleavage and dissociation of quenched duplex DNA oligonucleotides, measured as fluorescence at 594 nm.
Assay [5] concerns the target Methyl-CpG-binding domain protein 4 (Homo sapiens) (UniProt O95243). The following applies: Hit No.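 Note: MBD4 activity read as fluorescence at 594 nm from cleavage and release of a quenched duplex DNA oligonucleotide, with APE1 coupled to incise the strand and raise turnover.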
Description: Inhibition of MBD4 by quantifying inhibition of MBD4-mediated cleavage and dissociation of quenched duplex DNA oligonucleotides, measured as fluorescence at 594 nm. To generate a functional strand incision and increase turn-over this assay is coupled to APE1.
The target of assay [6] is N-glycosylase/DNA lyase (Homo sapiens) (UniProt O15527).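 Note: OGG1 cleavage of a quenched duplex DNA oligonucleotide, coupled to APE1 for strand incision, read as fluorescence at 594 nm.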
Description: Inhibition of OGG1 by quantifying inhibition of OGG1-mediated cleavage and dissociation of quenched duplex DNA oligonucleotides, measured as fluorescence at 594 nm. To generate a functional strand incision and increase turn-over this assay is coupled to APE1.
In assay [7] the target is T3, Single-strand selective monofunctional uracil DNA glycosylase (Homo sapiens) (UniProt Q53HV7).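 Note: enzymatic SMUG1 assay coupled with APE1, reading fluorescence at 594 nm released when a quenched double-stranded DNA oligonucleotide substrate is cleaved and separated.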
T3 sequence (whole entry): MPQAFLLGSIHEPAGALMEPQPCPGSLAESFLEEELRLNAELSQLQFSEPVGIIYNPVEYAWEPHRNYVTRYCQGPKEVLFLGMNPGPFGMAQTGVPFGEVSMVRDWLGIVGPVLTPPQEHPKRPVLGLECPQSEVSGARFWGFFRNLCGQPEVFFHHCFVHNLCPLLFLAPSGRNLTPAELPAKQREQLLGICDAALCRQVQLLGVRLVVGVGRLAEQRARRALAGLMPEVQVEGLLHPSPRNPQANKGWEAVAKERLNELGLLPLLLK
The following applies: Hit No.
Description: Inhibition of SMUG1 by quantifying inhibition of SMUG1-mediated cleavage and dissociation of quenched duplex DNA oligonucleotides, measured as fluorescence at 594 nm. To generate a functional strand incision and increase turn-over this assay is coupled to APE1.

Assay [8] deals with G/T mismatch-specific thymine DNA glycosylase (Homo sapiens) (UniProt Q13569). The following applies: Hit No.
Description: Inhibition of TDG by quantifying inhibition of TDG-mediated cleavage and dissociation of quenched duplex DNA oligonucleotides, measured as fluorescence at 594 nm. To generate a functional strand incision and increase turn-over this assay is coupled to APE1.
Where [9] appears, read: Compound Concentration 10.0 uM, Hit No.

Methyl-CpG-binding domain protein 4 (Homo sapiens), sequence (O95243 whole entry, the tested form may be a part): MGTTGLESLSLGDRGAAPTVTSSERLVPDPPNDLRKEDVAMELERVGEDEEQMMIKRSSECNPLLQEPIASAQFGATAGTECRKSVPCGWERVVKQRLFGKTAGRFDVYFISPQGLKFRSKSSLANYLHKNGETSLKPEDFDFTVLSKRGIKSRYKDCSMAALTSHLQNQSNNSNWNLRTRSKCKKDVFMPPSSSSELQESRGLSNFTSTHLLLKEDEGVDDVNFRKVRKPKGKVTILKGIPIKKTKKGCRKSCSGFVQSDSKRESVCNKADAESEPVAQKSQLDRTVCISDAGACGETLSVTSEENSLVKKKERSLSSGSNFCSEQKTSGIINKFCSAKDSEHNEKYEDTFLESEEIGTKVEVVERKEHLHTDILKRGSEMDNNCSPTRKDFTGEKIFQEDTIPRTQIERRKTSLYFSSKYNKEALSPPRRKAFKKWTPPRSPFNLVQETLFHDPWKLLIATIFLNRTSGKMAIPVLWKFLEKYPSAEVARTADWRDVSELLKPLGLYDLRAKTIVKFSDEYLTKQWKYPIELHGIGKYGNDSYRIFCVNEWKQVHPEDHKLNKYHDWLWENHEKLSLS
Uracil-DNA glycosylase (Homo sapiens), sequence (P13051 whole entry): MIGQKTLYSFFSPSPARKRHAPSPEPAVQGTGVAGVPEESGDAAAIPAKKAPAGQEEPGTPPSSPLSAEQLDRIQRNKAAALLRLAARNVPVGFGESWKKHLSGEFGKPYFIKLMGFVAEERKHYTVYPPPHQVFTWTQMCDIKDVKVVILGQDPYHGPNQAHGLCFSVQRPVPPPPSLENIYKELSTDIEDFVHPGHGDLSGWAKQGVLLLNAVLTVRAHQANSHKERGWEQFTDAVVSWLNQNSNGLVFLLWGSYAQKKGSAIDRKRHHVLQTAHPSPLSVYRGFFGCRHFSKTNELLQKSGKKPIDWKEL
G/T mismatch-specific thymine DNA glycosylase (Homo sapiens), sequence (Q13569 whole entry): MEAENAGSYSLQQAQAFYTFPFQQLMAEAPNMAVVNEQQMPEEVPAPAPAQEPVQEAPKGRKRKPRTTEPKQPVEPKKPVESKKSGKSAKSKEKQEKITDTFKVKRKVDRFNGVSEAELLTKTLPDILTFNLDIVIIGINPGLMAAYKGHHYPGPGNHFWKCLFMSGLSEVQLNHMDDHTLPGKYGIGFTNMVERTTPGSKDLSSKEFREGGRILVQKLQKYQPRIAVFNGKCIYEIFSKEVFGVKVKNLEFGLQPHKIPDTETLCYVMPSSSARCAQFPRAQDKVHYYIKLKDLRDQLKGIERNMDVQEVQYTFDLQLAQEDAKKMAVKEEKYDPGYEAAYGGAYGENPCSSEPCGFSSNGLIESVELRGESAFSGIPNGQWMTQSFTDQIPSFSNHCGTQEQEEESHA
Endonuclease 8-like 1 (Homo sapiens), sequence (Q96FI4 whole entry, the tested form may be a part): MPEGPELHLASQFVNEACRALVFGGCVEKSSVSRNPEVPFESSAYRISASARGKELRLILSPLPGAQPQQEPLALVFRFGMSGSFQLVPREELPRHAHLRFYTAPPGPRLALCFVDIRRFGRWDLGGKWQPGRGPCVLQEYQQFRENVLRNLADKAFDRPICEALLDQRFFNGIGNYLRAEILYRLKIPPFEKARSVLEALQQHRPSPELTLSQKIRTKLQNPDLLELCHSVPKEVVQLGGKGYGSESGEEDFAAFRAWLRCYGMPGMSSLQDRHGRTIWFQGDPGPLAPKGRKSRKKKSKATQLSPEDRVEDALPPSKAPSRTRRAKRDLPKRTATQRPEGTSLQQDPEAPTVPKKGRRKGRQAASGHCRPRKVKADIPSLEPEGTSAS
N-glycosylase/DNA lyase (Homo sapiens), sequence (O15527 whole entry): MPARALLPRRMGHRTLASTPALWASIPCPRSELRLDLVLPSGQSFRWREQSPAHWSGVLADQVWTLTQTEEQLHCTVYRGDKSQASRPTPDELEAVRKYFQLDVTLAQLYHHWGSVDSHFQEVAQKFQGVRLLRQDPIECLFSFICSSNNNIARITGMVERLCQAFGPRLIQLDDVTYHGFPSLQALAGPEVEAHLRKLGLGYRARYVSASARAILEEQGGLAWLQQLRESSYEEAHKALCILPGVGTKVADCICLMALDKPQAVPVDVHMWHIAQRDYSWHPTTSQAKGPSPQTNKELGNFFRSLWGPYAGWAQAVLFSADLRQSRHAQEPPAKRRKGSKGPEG

For orientation: inhibition means the relative decrease from the control value, in per cent. For the compound `C[C@H](NC(=O)Nc1cc2[nH]ncc2c(CO)n1)c1ccccn1`, the inhibition in assay [1] (Compound Concentration 10.0 uM) is 4.22%; in assay [2] (Compound Concentration 10.0 uM), -4.78%; in assay [3] (Compound Concentration 10.0 uM), -0.801%; in assay [4] (Compound Concentration 10.0 uM), -8.95%; in assay [5] (Compound Concentration 10.0 uM), 22.3%; in assay [6] (setting [9]) it was 0.354%. The inhibition in assay [7] (Compound Concentration 10.0 uM) stood at 21.2%; in assay [8] (Compound Concentration 10.0 uM), 51.6%.
For the compound `CN(C)CC#Cc1ccc(OCCCc2sc(N3CCc4cccc(C(=O)Nc5nc6ccccc6s5)c4C3)nc2C(=O)O)c(F)c1`, the inhibition in assay [1] (Compound Concentration 10.0 uM) was 1.14%; in assay [2] (Compound Concentration 10.0 uM), -4.83%; in assay [3] (Compound Concentration 10.0 uM), 0.0274%; in assay [4] (Compound Concentration 10.0 uM), -0.896%; in assay [5] (Compound Concentration 10.0 uM) it was 47.6%; in assay [6] (Compound Concentration 10.0 uM, Hit Yes), 85.3%. Further, the inhibition was determined as 1.49% in assay [7] (Compound Concentration 10.0 uM) and 40.4% in assay [8] (Compound Concentration 10.0 uM).
As for `Cc1cnc(-c2cc(Cl)ccc2F)cc1-n1c(=O)n(CC(N)=O)c2cnccc21`, the inhibition was 3.5% in assay [1] (Compound Concentration 10.0 uM); -8.34% in assay [2] (Compound Concentration 10.0 uM); -1.49% in assay [3] (Compound Concentration 10.0 uM); -5.82% in assay [4] (Compound Concentration 10.0 uM); 27.6% in assay [5] (Compound Concentration 10.0 uM); 1.02% in assay [6] (setting [9]). The inhibition is 13.4% in assay [7] (Compound Concentration 10.0 uM) and 43.1% in assay [8] (Compound Concentration 10.0 uM).
For the compound `CNC(=O)c1cc(C(=O)N[C@H]2[C@@H]3COC[C@@H]32)cc2c1O[C@H](CF)[C@H]2c1ccccc1`, the inhibition is 2.78% in assay [1] (Compound Concentration 10.0 uM); 5.12% in assay [2] (Compound Concentration 10.0 uM); -3.26% in assay [3] (Compound Concentration 10.0 uM); -1.35% in assay [4] (Compound Concentration 10.0 uM); 47.2% in assay [5] (Compound Concentration 10.0 uM); 4.16% in assay [6] (setting [9]). Further, the inhibition was 8.89% in assay [7] (Compound Concentration 10.0 uM) and 40.6% in assay [8] (Compound Concentration 10.0 uM).
With `COc1ccc2c(O[C@@H]3C[C@H]4C(=O)N[C@]5(C(=O)O)CC5/C=C\CCCCC[C@H](NC(=O)OC5CCCC5)C(=O)N4C3)cc(-c3csc(NC(=O)C(C)C)n3)nc2c1C` (some centres not stated), the inhibition was 5.79% in assay [1] (Compound Concentration 10.0 uM); 1.3% in assay [2] (Compound Concentration 10.0 uM); 6.6% in assay [3] (Compound Concentration 10.0 uM); -5.14% in assay [4] (Compound Concentration 10.0 uM); 33.3% in assay [5] (Compound Concentration 10.0 uM); 55.8% in assay [6] (setting [9]). Further, the inhibition in assay [7] (Compound Concentration 10.0 uM) was -6.44%; in assay [8] (Compound Concentration 10.0 uM), 38.5%.
`O=C(NCc1ncc(C(F)(F)F)cc1Cl)c1ccc2c(c1)C1(CCS(=O)(=O)CC1)[C@@H](C1CC1)N2S(=O)(=O)c1ccc(F)cc1`: the inhibition is -1.13% in assay [1] (Compound Concentration 10.0 uM); -9.67% in assay [2] (Compound Concentration 10.0 uM); -8.52% in assay [3] (Compound Concentration 10.0 uM); -9.38% in assay [4] (Compound Concentration 10.0 uM); 54.9% in assay [5] (Compound Concentration 10.0 uM); 3.62% in assay [6] (setting [9]). The inhibition in assay [7] (Compound Concentration 10.0 uM) is 6.37%; in assay [8] (Compound Concentration 10.0 uM) it was 36.9%.
Regarding `Cc1cc(C)c(-n2ccn3nc(-c4cccnc4)cc23)cc1NC(=O)c1cc(C#N)cc(S(F)(F)(F)(F)F)c1`, the inhibition in assay [1] (Compound Concentration 1.0 uM) is 1.49%; in assay [2] (Compound Concentration 1.0 uM), -7.9%; in assay [3] (Compound Concentration 1.0 uM), -3.66%; in assay [4] (Compound Concentration 1.0 uM) it was -7.27%; in assay [5] (Compound Concentration 1.0 uM), 40%; in assay [6] (Compound Concentration 1.0 uM, Hit No), 1.96%. Also, the inhibition in assay [7] (Compound Concentration 1.0 uM) was 7.64%; in assay [8] (Compound Concentration 1.0 uM), 50.8%.
As to `COC(=O)/C=C/c1cccc(N(Cc2ccc(-c3ccc(N(C)C)cc3)cc2)C(=O)C2CCCCC2)c1`, the inhibition in assay [1] (Compound Concentration 10.0 uM) is -3.03%; in assay [2] (Compound Concentration 10.0 uM), 3.34%; in assay [3] (Compound Concentration 10.0 uM), 7.26%; in assay [4] (Compound Concentration 10.0 uM), -4.23%; in assay [5] (Compound Concentration 10.0 uM) it was 53.7%; in assay [6] (setting [9]) it was 7.66%. In addition, the results for the inhibition in assay [7] (Compound Concentration 10.0 uM) and in assay [8] (Compound Concentration 10.0 uM) were -4.57% and 44.3%, respectively.
On to `OC(c1ccc(-c2ccc(CN3CCN(Cc4ccncc4)CC3)cc2)c(F)c1)(C(F)(F)F)C(F)(F)F`, for which the inhibition was -1.04% in assay [1] (Compound Concentration 10.0 uM); -2.02% in assay [2] (Compound Concentration 10.0 uM); -8.52% in assay [3] (Compound Concentration 10.0 uM); -6.8% in assay [4] (Compound Concentration 10.0 uM); 47.6% in assay [5] (Compound Concentration 10.0 uM); -1.15% in assay [6] (setting [9]). The values for the inhibition in assay [7] (Compound Concentration 10.0 uM) and in assay [8] (Compound Concentration 10.0 uM) were -2.17% and 64.2%, respectively.
